This note sets out measurements from patent US20090163523A1, “Combinations comprising a s1p receptor agonist and a jak3 kinase inhibitor” (priority 2004, published 2009).

Values after ≈ are worked out from the molar mass of the structure shown.

The subject of this assay is donor heart graft. The assay can be described thus: Rat heart transplantation, graft survival. The format is in vivo. The settings on record: 672 h; rat heart transplant; blood concentration; read-out: EC50 (drug concentration in blood at which 50% of the animals maintain their graft for >28 days). On the procedure: The aorta is ligated and divided distal to the first branch and the brachiocephalic trunk is divided at the first bifurcation. The left pulmonary artery is ligated and divided and the right side divided but left open. All other vessels are dissected free, ligated and divided and the donor heart is removed into iced saline.
The recipient is prepared by dissection and cross-clamping of the infra-renal abdominal aorta and vena cava. The graft is implanted with end-to-side anastomoses, using 10/0 monofilament suture, between the donor brachiocephalic trunk and the recipient aorta and the donor right pulmonary artery to the recipient vena cava. The clamps are removed, the graft tethered retroabdominally, the abdominal contents washed with warm saline and the animal is closed and allowed to recover under a heating lamp. Graft survival is monitored by daily palpation of the beating donor heart through the abdominal wall. Rejection is considered to be complete when heart beat stops.

Take `C[C@@H]1CCN(C(=O)CC#N)C[C@@H]1N(C)c1ncnc2[nH]ccc12` [CP-690,550 mono-citrate, 3-{(3R,4R)-4-methyl-3-[methyl-(7H-pyrrolo[2,3-d]pyrimidin-4-yl)-amino]-piperidin-1-yl}-3-oxo-propionitrile]: the EC50 stood at 0.06 µg/mL (≈ 0.192 µM).
